Data: US20240254129A1, “HETEROCYCLIC COMPOUNDS AND USES THEREOF” (Kumquat Biosciences Inc., priority 2021, published 2024)
Read-outs that look alike come from different tables or passages of the source.

Tests used:
wildtype Kras / hSOS1 = target: T1, wildtype Kras / hSOS1 (Homo sapiens, UniProt P01116); experiment: HTRF assay, wildtype Kras / SOS1 interaction; assay type: binding; conditions: read-out: IC50 against wildtype Kras
T1 construct: made in house; host or cells: E. coli BL21 (DE3)
Outline: (§1)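 HTRF read-out of GST-tagged K-Ras (mutant or wildtype) binding His-hSOS1, via anti-GST-Eu donor and anti-6His-XL665 acceptor; buffer ~5 mM HEPES pH 7.4, ~150 mM NaCl, ~1 mM DTT, 0.05% BSA, 0.0025% Igepal. Read after ≥~10 min; duplicates, 10 μM to 0.01 μM; IC50 from 665/620 nm ratio.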

[1] = target: GST-tagged K-Ras mutant / His-tagged hSOS1 (Homo sapiens, UniProt P01116); experiment: HTRF assay, K-Ras mutant / SOS1 interaction; assay type: binding; conditions: read-out: IC50 against mutant Kras
Outline: as §1

[2] = compound nos. 102-196, general methodology of example 5

T1 sequence (P01116 1-188 isoform P01116-2): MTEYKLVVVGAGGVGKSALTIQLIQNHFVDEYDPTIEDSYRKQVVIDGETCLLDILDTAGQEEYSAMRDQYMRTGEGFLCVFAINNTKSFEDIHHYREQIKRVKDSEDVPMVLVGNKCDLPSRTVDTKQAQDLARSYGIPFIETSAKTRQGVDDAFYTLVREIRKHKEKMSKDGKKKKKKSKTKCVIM
Chain of GST-tagged K-Ras mutant / His-tagged hSOS1 (P01116 whole entry G12D, form open): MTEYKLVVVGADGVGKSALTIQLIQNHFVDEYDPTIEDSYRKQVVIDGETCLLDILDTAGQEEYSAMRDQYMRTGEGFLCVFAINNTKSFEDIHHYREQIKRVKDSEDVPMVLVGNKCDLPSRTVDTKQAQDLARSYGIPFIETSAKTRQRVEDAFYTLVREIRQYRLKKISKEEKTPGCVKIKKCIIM

Structure (SMILES) | IC50 (wildtype Kras / hSOS1; compound nos. 401-703) | IC50 ([1]; compound nos. 401-703) | IC50 (wildtype Kras / hSOS1; [2]) | IC50 [1, 2]
CN(CCC1CCC[N+]1(C)C)c1nc(N2CC3CCC(C2)N3)c2ccc(-c3ccc(F)c4sc(N)nc34)nc2n1 (stereo not shown) [Compound 647, 4-(4-(3,8-diazabicyclo-[3.2.1]octan-3-yl)-2-((2-(1,1-dimethyl-114-pyrrol-idin-2-yl)ethyl)(methyl)-amino)pyrido[2,3-d]pyr-imidin-7-yl)-7-fluoroben-zo[d]thiazol-2-amine] | > 500 nM | > 500 nM | – | –
Fc1c(-c2cccc(-c3ccccc3)c2)c(Cl)cc2c(N3CCCCCC3)nc(OCC34CCCN3CCC4)nc12 [Compound 482, 7-([1,1′-biphenyl]-3-yl)-4-(azepan-1-yl)-6-chloro-8-fluoro-2-((tetrahydro-1H-pyrrolizin-7a(5H)-yl)meth-oxy)quinazoline] | < 500 nM | > 500 nM | – | –
CN1CCC[C@H]1COc1nc(N2CCCC(Cl)CC2)c2cc(Cl)c(-c3cccc4sc(N)nc34)c(F)c2n1 (stereo partly drawn) [Compound 593, 4-(6-chloro-4-(4-chloro-azepan-1-yl)-8-fluoro-2-(((S)-1-methylpyrrolidin-2-yl)methoxy)quinazolin-7-yl)benzo[d]thiazol-2-amine] | > 500 nM | < 500 nM | – | –
Nc1nc2c(-c3c(Cl)cc4c(N5CCNCC(F)(F)C5)nc(OCC5(CN6CCCC6)CC5)nc4c3F)ccc(F)c2s1 [Compound 452, 4-(6-chloro-4-(6,6-difluoro-1,4-diazepan-1-yl)-8-fluoro-2-((1-(pyrrolidin-1-ylmeth-yl)cyclopropyl)methoxy)-quinazolin-7-yl)-7-fluoro-benzo[d]thiazol-2-amine] | < 500 nM | < 500 nM | – | –
CN(C)CC1(COc2nc(N3CC4CCC(C3)N4)c3ccc(-c4cccc5cccc(Cl)c45)c(F)c3n2)CC1 [Compound 447, 1-(1-(((4-(3,8-diazabicyclo-[3.2.1]octan-3-yl)-7-(8-chloronaphthalen-1-yl)-8-fluoroquinazolin-2-yl)oxy)-methyl)cyclopropyl)-N,N-dimethylmethanamine] | < 500 nM | > 500 nM | – | –
Cc1c(N)sc2cccc(-c3ccc4c(N5CC6CCC(C5)N6)nc(OC[C@@]56CCCN5C[C@H](F)C6)nc4c3F)c12 [Compound 437, 4-(4-(3,8-diazabicyclo-[3.2.1]octan-3-yl)-8-fluoro-2-(((2R,7aS)-2-fluorotetra-hydro-1H-pyrrolizin-7a(5H)-yl)methoxy)quinazolin-7-yl)-3-methylbenzo[b]thio-phen-2-amine] | < 500 nM | > 500 nM | – | –
CN1CCC[C@H]1COc1nc(N2CCN(S(C)(=O)=O)CC(F)(F)C2)c2cc(Cl)c(-c3cccc4sc(N)nc34)c(F)c2n1 [Compound 140, 4-(6-chloro-4-(6,6-difluoro-4-(methylsulfonyl)-1,4-diazepan-1-yl)-8-fluoro-2-(((S)-1-methylpyrrolidin-2-yl)methoxy)quinazolin-7-yl)-benzo[d]thiazol-2-amine] | – | – | < 500 nM | > 500 nM
Nc1ccc2cccc(-c3c(Cl)cc4c(N5CC6CCC(C5)N6)nc(OCC56CCCN5CCC6)nc4c3F)c2n1 [Compound 597, 8-(4-(3,8-diazabicyclo-[3.2.1]octan-3-yl)-6-chloro-8-fluoro-2-((tetrahydro-1H-pyrrolizin-7a(5H)-yl)meth-oxy)quinazolin-7-yl)quin-olin-2-amine] | > 500 nM | > 500 nM | – | –
CN1CCC[C@H]1COc1nc(N2CCNCC(F)(F)C2)c2cc(Cl)c(-c3cccc4oc(O)nc34)c(F)c2n1 [Compound 176, 4-(6-chloro-4-(6,6-difluoro-1,4-diazepan-1-yl)-8-fluoro-2-(((S)-1-methylpyrrolidin-2-yl)methoxy)quinazolin-7-yl)benzo[d]oxazol-2-ol] | – | – | > 500 nM | > 500 nM
Nc1nc2c(-c3c(Cl)cc4c(N5CCC[C@@H](O)CC5)nc(OC[C@@]56CCCN5C[C@H](F)C6)nc4c3F)ccc(F)c2s1 [Compound 480, (4R)-1-(7-(2-amino-7-fluorobenzo[d]thiazol-4-yl)-6-chloro-8-fluoro-2-(((2R,7aS)-2-fluorotetra-hydro-1H-pyrrolizin-7a(5H)-yl)methoxy)quinazolin-4-yl)azepan-4-ol] | < 500 nM | < 500 nM | – | –
Nc1nc2ccccc2n1-c1ccc2c(N3CC4CCC(C3)N4)nc(OCC34CCCN3CCC4)nc2c1F [Compound 525, 1-(4-(3,8-diazabicyclo-[3.2.1]octan-3-yl)-8-fluoro-2-((tetrahydro-1H-pyrrol-izin-7a(5H)-yl)methoxy)-quin-azolin-7-yl)-1H-benzo-[d]imidazol-2-amine] | > 500 nM | > 500 nM | – | –
CN1CCN(c2nc(OC[C@@H]3CCCN3C)nc3c(F)c(-c4cccc5sc(N)nc45)c(Cl)cc23)CC(F)(F)C1 [Compound 123, 4-(6-chloro-4-(6,6-difluoro-4-methyl-1,4-diazepan-1-yl)-8-fluoro-2-(((S)-1-methyl-pyrrolidin-2-yl)methoxy)-quinazolin-7-yl)benzo[d]-thiazol-2-amine] | – | – | > 500 nM | > 500 nM
Nc1nc2c(-c3c(Cl)cc4c(N5CCC6CCC(C5)N6)nc(OCC56CCCN5CCC6)nc4c3F)ccc(F)c2s1 (stereo not shown) [Compound 494, 4-(4-(3,9-diazabicyclo-[4.2.1]nonan-3-yl)-6-chloro-8-fluoro-2-((tetrahydro-1H-pyrrolizin-7a(5H)-yl)meth-oxy)quinazolin-7-yl)-7-fluorobenzo[d]thiazol-2-amine] | < 500 nM | < 500 nM | – | –
CN(C)CC1(COc2nc(N3CCNCC(F)(F)C3)c3cc(Cl)c(-c4ccc(F)c5sc(N)nc45)c(F)c3n2)CC1 [Compound 489, 4-(6-chloro-4-(6,6-difluoro-1,4-diazepan-1-yl)-2-((1-((dimethylamino)methyl)-cyclopropyl)methoxy)-8-fluoroquinazolin-7-yl)-7-fluorobenzo[d]thiazol-2-amine] | < 500 nM | < 500 nM | – | –
Fc1c(-c2ccc(F)c3[nH]nc(I)c23)c(Cl)cc2c(N3CC4CCC(C3)N4)nc(OC[C@@]34CCCN3C[C@H](F)C4)nc12 [Compound 671, 4-(3,8-diazabicyclo[3.2.1]-octan-3-yl)-6-chloro-8-fluoro-7-(7-fluoro-3-iodo-1H-indazol-4-yl)-2-(((2R,7aS)-2-fluorotetra-hydro-1H-pyrrolizin-7a(5H)-yl)methoxy)quinazoline] | > 500 nM | > 500 nM | – | –
Fc1c(N2CCc3ccccc32)ccc2c(N3CCCCCC3)nc(OCC34CCCN3CCC4)nc12 [Compound 487, 4-(azepan-1-yl)-8-fluoro-7-(indolin-1-yl)-2-((tetra-hydro-1H-pyrrolizin-7a(5H)-yl)methoxy)quin-azoline] | < 500 nM | > 500 nM | – | –
Fc1c(-c2cccc3c2C2CC2C3)c(Cl)cc2c(N3CC4CCC(C3)N4)nc(OC[C@@]34CCCN3C[C@H](F)C4)nc12 (stereo partly drawn) [Compound 422, 4-(3,8-diazabicyclo[3.2.1]-octan-3-yl)-6-chloro-8-fluoro-2-(((2R,7aS)-2-fluoro-tetrahydro-1H-pyrrolizin-7a(5H)-yl)methoxy)-7-(1,1a,6,6a-tetrahydrocyclo-propa[a]inden-2-yl)quin-azoline] | < 500 nM | > 500 nM | – | –
Cc1ccc2cn[nH]c2c1-c1c(Cl)cc2c(N3CC4CCC(C3)N4)nc(OC[C@@]34CCCN3C[C@H](F)C4)nc2c1F [Compound 611, 4-(3,8-diazabicyclo[3.2.1]-octan-3-yl)-6-chloro-8-fluoro-2-(((2R,7aS)-2-fluorotetrahydro-1H-pyrrol-izin-7a(5H)-yl)methoxy)-7-(6-methyl-1H-indazol-7-yl)-quinazoline] | > 500 nM | > 500 nM | – | –
CN(C)CC1(COc2nc(N3CC4CCC(C3)N4)c3ccc(-c4cc(O)cc5ccccc45)c(F)c3n2)CC1 [Compound 501, 4-(4-(3,8-diazabicyclo-[3.2.1]octan-3-yl)-2-((1-((dimethylamino)methyl)-cyclopropyl)methoxy)-8-fluoroquinazolin-7-yl)naph-thalen-2-ol] | > 500 nM | < 500 nM | – | –
CN1CCC[C@H]1COc1nc(N2CCCC(NS(=O)(=O)C3CC3)CC2)c2cc(Cl)c(-c3cccc4sc(N)nc34)c(F)c2n1 (stereo partly drawn) [Compound 472, N-(1-(7-(2-aminobenzo[d]-thiazol-4-yl)-6-chloro-8-fluoro-2-(((S)-1-methylpyr-rolidin-2-yl)methoxy)quin-azolin-4-yl)azepan-4-yl)-cyclopropanesulfonamide] | < 500 nM | < 500 nM | – | –
Nc1nc2c(-c3c(Cl)cc4c(N5CC6CCNCC6C5)nc(OC[C@@]56CCCN5C[C@H](F)C6)nc4c3F)ccc(F)c2s1 (stereo partly drawn) [Compound 566, 4-(6-chloro-8-fluoro-2-(((2R,7aS)-2-fluorotetra-hydro-1H-pyrrolizin-7a(5H)-yl)methoxy)-4-(octahydro-2H-pyrrolo[3,4-c]pyridin-2-yl)quinazolin-7-yl)-7-fluoro-benzo[d]thiazol-2-amine] | > 500 nM | < 500 nM | – | –
N#Cc1c(N)sc2c(F)ccc(-c3c(Cl)cc4c(N5CC6CCC(C5)O6)nc(OC[C@@]56CCCN5C[C@H](F)C6)nc4c3F)c12 [Compound 473, 4-(4-(8-oxa-3-azabicyclo-[3.2.1]octan-3-yl)-6-chloro-8-fluoro-2-(((2R,7aS)-2-fluorotetrahydro-1H-pyrrol-izin-7a(5H)-yl)methoxy)-quinazolin-7-yl)-2-amino-7-fluorobenzo[b]thiophene-3-carbonitrile] | < 500 nM | < 500 nM | – | –
N#Cc1c(N)sc2cccc(-c3c(Cl)cc4c(N5CC6CCC(C5)N6)nc(OC[C@@]56CCCN5C[C@H](F)C6)nc4c3F)c12 [Compound 552, 4-(4-(3,8-diazabicyclo-[3.2.1]octan-3-yl)-6-chloro-8-fluoro-2-(((2R,7aS)-2-fluorotetrahydro-1H-pyrrol-izin-7a(5H)-yl)methoxy)-quinazolin-7-yl)-2-amino-benzo[b]thiophene-3-carbonitrile] | > 500 nM | < 500 nM | – | –
